Assay results taken from publication PMC8307831, “Preparation of Monoclonal Antibody and Development of Indirect Competitive Enzyme-Linked Immunosorbent Assay and Fluorescence-Linked Immunosorbent Assay for Detecting 3-Amino-5-methylmorpholino-2-oxazolidinone (AMOZ) in Edible Animal Tissue” (Molecules, 2021).
≈ marks a conversion by molar mass, not a printed value.

Tests used:
mAb 5C10/3A8 [1] = test: indirect competitive ELISA (ic-ELISA) with CPAMOZ-OVA coating antigen; assay type: binding, mouse; details: for Cross-Reactivity: (IC50 of 2-NP-AMOZ / IC50 of compound tested) x 100%, 2-NP-AMOZ set to 100%; for IC50: mAb 5C10/3A8, competition with coating antigen CPAMOZ-OVA
Procedure: To carry out 2-NP-AMOZ ic-ELISA, 96-well plates were first coated with 100 μL of CPAMOZ-OVA in 50 mM of carbonate buffer solution (pH = 9.6) overnight at 4 °C. […] The plates were washed again three times, after which 50 μL of different concentrations of 2-NP-AMOZ analytes and 50 μL of the obtained mAb were added into each well, incubated at 37 °C for 1 h, and the plates were washed three times with the PBST. Subsequently, 100 μL of horseradish peroxidase-labeled goat anti-mouse IgG (1:10,000 dilution) was added to the wells and incubated at 37 °C for 1 h. This was followed by a washing step of three washes with PBST solution, after which 100 μL of substrate solution was added to each well and incubated for 15 min in darkness. The reaction was stopped by adding 50 μL/well of 2 M of H2SO4. The absorbance at 450 nm was measured on a Tecan Sunrise 2.5 microplate reader (SUNRISE, Austria). A calibration curve was constructed by plotting (B/B0) × 100% vs. log C, where B and B0 represent the absorbance of the analyte at the known concentrates (standards) and at zero concentration of the analyte, respectively.
The extent of cross-reactivity was evaluated by determining IC50 values using an ic-ELISA as described above. […] The concentration of the standard solutions of the compounds was set from 0.01 to 1000 ng/mL.

mAb 5C10/3A8 [2] = test: QD-based fluorescence-linked immunosorbent assay (FLISA); assay type: binding; details: 655 nm QDs-conjugated goat anti-mouse IgG
Procedure: The procedures for FLISA and ic-ELISA were identical before the secondary antibody was added. More specifically, after washing with PBST for three times, 100 μL of 655 nm QDs-conjugated goat anti-mouse IgG (1:10,000 dilution) was added to each well and incubated at 37 °C for 45 min. After three washes with PBST, a SpectraMax M2e Microplate Reader (Molecular Devices, San Jose, CA, USA) was used to measure the fluorescence signals from samples with excitation/emission at 360/655 nm. The fluorescence intensities were identified as B0 and B for the control and testing sample. The standard curve was established by plotting the form (B/B0) 100% against the 2-NP-AMOZ concentration.

monoclonal antibodies = test system: monoclonal antibodies; design: method as in not given; details: published mAb-based homologous ic-ELISAs and fluoroimmunoassay; range over the literature; ref not given; cited from earlier work

Structure (SMILES) | IC50 (mAb 5C10/3A8 [1]) [µg/mL] | IC50 (mAb 5C10/3A8 [2]) [ng/mL] | Cross-Reactivity (mAb 5C10/3A8 [1]) [%] | IC50 (monoclonal antibodies) [µg/mL]
O=Cc1ccc(C(=O)O)cc1 [4-CBA, 4-carboxybenzaldehyle] | >1 | – | <0.01 | –
NC(=O)N/N=C/c1ccc([N+](=O)[O-])o1 [Nitrofurazone, nitrofurazone] | >1 | – | <0.01 | –
O=C1CN(/N=C/c2ccccc2[N+](=O)[O-])C(=O)N1 [2-NP-AHD] | >1 | – | <0.01 | –
NN1CC(=O)NC1=O [AHD, 1-aminohydantoin] | >1 | – | <0.01 | –
O=C(O)c1ccc(/C=N/N2CC(CN3CCOCC3)OC2=O)cc1 (centres unmarked) [CPAMOZ, carboxyphenyl AMOZ] | 9e-05 (≈ 0.00027 µM) | – | 122.2 | –
NNC(N)=O [SEM, semicarbazide] | >1 | – | <0.01 | –
O=C1CN(/N=C/c2ccc([N+](=O)[O-])o2)C(=O)N1 [Nitrofurantoin, nitrofurantoin] | >1 | – | <0.01 | –
NN1CC(CN2CCOCC2)OC1=O (centres unmarked) [AMOZ, 3-amino-5-morpholinomethyl-2-oxazolidinone] | 0.00103 (≈ 0.00512 µM) | – | 10.7 | 0.00115 to 0.00533
O=C1OCCN1/N=C/c1ccccc1[N+](=O)[O-] [2-NP-AOZ] | >1 | – | <0.01 | –

Second part, led by results:

IC50 (mAb 5C10/3A8 [1]) [µg/mL] | IC50 (mAb 5C10/3A8 [2]) [ng/mL] | Structure (SMILES) | Cross-Reactivity (mAb 5C10/3A8 [1]) [%] | IC50 (monoclonal antibodies) [µg/mL]
0.00124 (≈ 0.00382 µM) | – | O=C1OC(CN2CCOCC2)CN1/N=C/c1ccc([N+](=O)[O-])o1 (centres unmarked) [Furaltadone, furaltadone] | 8.9 | –
>1 | – | NN1CCOC1=O [AOZ, 3-amino-2-oxazolidinone] | <0.01 | –
>1 | – | O=Cc1ccccc1[N+](=O)[O-] [2-NBA, 2-nitrobenzaldehyde] | <0.01 | –
0.00011 (≈ 0.000329 µM) | 0.09 (≈ 0.000269 µM) | O=C1OC(CN2CCOCC2)CN1/N=C/c1ccccc1[N+](=O)[O-] (centres unmarked) [2-NP-AMOZ] | 100 | 0.00014 to 0.0043
